From patent US20220064141A1, “BENZOPYRIDONE HETEROCYCLIC COMPOUND AND USE THEREOF” (BrightGene Bio-Medical Technology Co., Ltd., priority 2019, published 2022)

System: NCI-H358 human non-small cell lung cancer cell with KRAS G12C mutation
Assay: Cell Titer-Glo cell viability, NCI-H358 cells (72 h)
Type: cell-based
Excerpt: Effect Example 1: Pharmacodynamic Assay 1 (Determination of the efficacy of the compounds of the present disclosure on NCI-H358 human non-small cell lung cancer cell with KRAS G12C mutation)
The following method was used to determine the effect of the compounds of the present disclosure on tumor cell proliferation.
For the KRAS G12C subtype, NCI-H358 non-small cell lung cancer cells with KRAS G12C mutation were used to determine the efficacy of the compounds in inhibiting cancer cell viability. NCI-H358 cells were cultured in a DMEM medium containing 10% fetal bovine serum, 100 U penicillin and […] streptomycin. The cells were cultured in an incubator with 5% CO2 at 37° C. Cancer cell viability was evaluated by determining the content of ATP with Cell Titer-Glo® kit (Luminescent Cell Viability Assay kit, please refer to the manufacturer's instructions for use) and evaluating the inhibition of cell growth.
The experimental method was proceeded in accordance with the steps in the instructions for the kit, and was described briefly as follows. The test compounds were first dissolved in DMSO to prepare stock solutions, and then the stock solutions were subjected to gradient dilution with the culture media of the corresponding cells, thereby preparing test samples. The final concentrations of the compounds were in the range of 30 μM to 0.01 nM. Tumor cells in logarithmic growth phase were seeded into a 96-well cell culture plate at an appropriate density. After the cell culture plate was left overnight in an incubator with 5% CO2 at 37° C., the test compound samples were added thereto and then the cells were further cultured for 72 hours. After the incubation was complete, an appropriate volume of Cell Titer-Glo® reagent was added into each well, and the cells were incubated at 37° C. for 1 to 4 hours. Then, the […] was read on a microplate reader.

[1] = Homo sapiens, NCI-H358, 72 h, class symbols

IC50 [1] [nM]	Compound	other results
< 100	C=CC(=O)N1CCN(c2c(C#N)c(=O)n(-c3ccccc3C(C)C)c3cc(-c4cc(Cl)cc(F)c4N)c(Cl)cc23)[C@@H](C)C1 (atropisomer, axis not shown) [Compound I-78]	
	C=CC(=O)N1CCN(c2c(C#N)c(=O)n(-c3ccccc3C(C)C)c3cc(-c4c(C)ccc5[nH]ncc45)c(Cl)cc23)[C@H](C)C1 (single isomer, unassigned) [Compound I-3-1]	IC50 (numeric values): 1980 nM
	C=CC(=O)N1CCN(c2c(C#N)c(=O)n(-c3ccccc3C(C)C)c3cc(-c4c(C)ccc5[nH]ncc45)c(Cl)cc23)[C@H](C)C1 (single isomer, unassigned) [Compound I-3-2]	IC50 (numeric values): 250 nM
	C=CC(=O)N1C[C@H](C)N(c2c(C#N)c(=O)n(-c3ccccc3C(C)C)c3cc(-c4c(C)ccc5[nH]ncc45)c(Cl)cc23)C[C@H]1C (single isomer, unassigned) [Compound I-4-1]	IC50 (class symbols): > 1000 nM
	C=CC(=O)N1C[C@H](C)N(c2c(C#N)c(=O)n(-c3ccccc3C(C)C)c3cc(-c4c(C)ccc5[nH]ncc45)c(Cl)cc23)C[C@H]1C (single isomer, unassigned) [Compound I-4-2]	IC50 (class symbols): 100 to 1000 nM
	C=CC(=O)N1CC2(CCN(c3c(C#N)c(=O)n(-c4ccccc4C(C)C)c4cc(-c5c(C)ccc6[nH]ncc56)c(Cl)cc34)CC2)C1 (single isomer, unassigned) [Compound I-5-1]	IC50 (class symbols): > 1000 nM
	C=CC(=O)N1CC2(CCN(c3c(C#N)c(=O)n(-c4ccccc4C(C)C)c4cc(-c5c(C)ccc6[nH]ncc56)c(Cl)cc34)CC2)C1 (single isomer, unassigned) [Compound I-5-2]	IC50 (class symbols): 100 to 1000 nM
	C=C(F)C(=O)N1CCN(c2c(C#N)c(=O)n(-c3ccccc3C(C)C)c3cc(-c4c(C)ccc5[nH]ncc45)c(Cl)cc23)[C@@H](C)C1 (single isomer, unassigned) [Compound I-6-1]	IC50 (class symbols): > 1000 nM
	C=C(F)C(=O)N1CCN(c2c(C#N)c(=O)n(-c3ccccc3C(C)C)c3cc(-c4c(C)ccc5[nH]ncc45)c(Cl)cc23)[C@@H](C)C1 (single isomer, unassigned) [Compound I-6-2]	IC50 (class symbols): < 100 nM
	C=CC(=O)N1CCN(c2c(C#N)c(=O)n(-c3ccccc3C(C)C)c3cc(-c4c(OC)ccc(Cl)c4F)c(Cl)cc23)[C@@H](C)C1 (single isomer, unassigned) [Compound I-7-1]	IC50 (class symbols): > 1000 nM
	C=CC(=O)N1CCN(c2c(C#N)c(=O)n(-c3ccccc3C(C)C)c3cc(-c4c(OC)ccc(Cl)c4F)c(Cl)cc23)[C@@H](C)C1 (single isomer, unassigned) [Compound I-7-2]	IC50 (class symbols): 100 to 1000 nM
100 to 1000	C=CC(=O)N1CCN(c2c(C#N)c(=O)n(-c3ccccc3C(C)C)c3cc(-c4c(N)cccc4F)c(Cl)cc23)[C@@H](C)C1 [Compound I-9]	
> 1000	C=CC(=O)N1CCN(c2c(C#N)c(=O)n(-c3ccccc3C(C)C)c3cc(-c4ccccc4F)c(Cl)cc23)[C@@H](C)C1 [Compound I-10]	
> 1000	C=CC(=O)N1CCN(c2c(C#N)c(=O)n(-c3ccccc3C(C)C)c3cc(-c4ccc(Cl)cc4)c(Cl)cc23)[C@@H](C)C1 [Compound I-11]	
100 to 1000	C=CC(=O)N1CCN(c2c(C#N)c(=O)n(-c3ccccc3C(C)C)c3cc(-c4ccccc4C(N)=O)c(Cl)cc23)[C@@H](C)C1 [Compound I-12]	
100 to 1000	C=CC(=O)N1CCN(c2c(C#N)c(=O)n(-c3ccccc3C(C)C)c3cc(-c4cc(N)ccc4F)c(Cl)cc23)[C@@H](C)C1 [Compound I-13]	
100 to 1000	C=CC(=O)N1CCN(c2c(C#N)c(=O)n(-c3ccccc3C(C)C)c3cc(-c4cccc(F)c4)c(Cl)cc23)[C@@H](C)C1 [Compound I-14]	
100 to 1000	C=CC(=O)N1CCN(c2c(C#N)c(=O)n(-c3ccccc3C(C)C)c3cc(-c4ccc(F)cc4)c(Cl)cc23)[C@@H](C)C1 [Compound I-15]	
100 to 1000	C=CC(=O)N1CCN(c2c(C#N)c(=O)n(-c3ccccc3C(C)C)c3cc(-c4cc(C)c(=O)n(C)c4)c(Cl)cc23)[C@@H](C)C1 [Compound I-16]	

IC50 [1] [nM]	Compound	other results
> 1000	C=CC(=O)N1CCN(c2c(C#N)c(=O)n(-c3ccccc3C(C)C)c3cc(-c4cccc(Cl)c4)c(Cl)cc23)[C@@H](C)C1 [Compound I-17]	
100 to 1000	C=CC(=O)N1CCN(c2c(C#N)c(=O)n(-c3ccccc3C(C)C)c3cc(-c4ccccc4Cl)c(Cl)cc23)[C@@H](C)C1 [Compound I-18]	
> 1000	C=CC(=O)N1CCN(c2c(C#N)c(=O)n(-c3ccccc3C(C)C)c3cc(-c4ccccc4C#N)c(Cl)cc23)[C@@H](C)C1 [Compound I-19]	
100 to 1000	C=CC(=O)N1CCN(c2c(C#N)c(=O)n(-c3ccccc3C(C)C)c3cc(-c4cccc5c4oc4ccccc45)c(Cl)cc23)[C@@H](C)C1 [Compound I-20]	
100 to 1000	C=CC(=O)N1CCN(c2c(C#N)c(=O)n(-c3ccccc3C(C)C)c3cc(-c4c(C)cnn4C)c(Cl)cc23)[C@@H](C)C1 [Compound I-21]	
< 100	C=CC(=O)N1CCN(c2c(C#N)c(=O)n(-c3ccccc3C(C)C)c3cc(-c4ccc(F)c5ccccc45)c(Cl)cc23)[C@@H](C)C1 [Compound I-22]	
100 to 1000	C=CC(=O)N1CCN(c2c(C#N)c(=O)n(-c3ccccc3C(C)C)c3cc(-c4cccc5ccncc45)c(Cl)cc23)[C@@H](C)C1 [Compound I-23]	
< 100	C=CC(=O)N1CCN(c2c(C#N)c(=O)n(-c3ccccc3C(C)C)c3cc(-c4ccc(Cl)c5ccccc45)c(Cl)cc23)[C@@H](C)C1 [Compound I-24]	
100 to 1000	CCn1nccc1-c1cc2c(cc1Cl)c(N1CCN(C(C)=O)C[C@@H]1C)c(C#N)c(=O)n2-c1ccccc1C(C)C [Compound I-25]	
100 to 1000	C=CC(=O)N1CCN(c2c(C#N)c(=O)n(-c3ccccc3C(C)C)c3cc(-c4cccc5c4OCCO5)c(Cl)cc23)[C@@H](C)C1 [Compound I-26]	
100 to 1000	C=CC(=O)N1CCN(c2c(C#N)c(=O)n(-c3ccccc3C(C)C)c3cc(-c4cnc(C5CC5)nc4)c(Cl)cc23)[C@@H](C)C1 [Compound I-27]	
> 1000	C=CC(=O)N1CCN(c2c(C#N)c(=O)n(-c3ccccc3C(C)C)c3cc(-c4cc(C)c(C)cc4C)c(Cl)cc23)[C@@H](C)C1 [Compound I-28]	
100 to 1000	C=CC(=O)N1CCN(c2c(C#N)c(=O)n(-c3ccccc3C(C)C)c3cc(-c4ccc(Cl)c(Cl)c4C)c(Cl)cc23)[C@@H](C)C1 [Compound I-29]	
> 1000	C=CC(=O)N1CCN(c2c(C#N)c(=O)n(-c3ccccc3C(C)C)c3cc(-c4cnc(OC)cc4C)c(Cl)cc23)[C@@H](C)C1 [Compound I-30]	
< 100	C=CC(=O)N1CCN(c2c(C#N)c(=O)n(-c3ccccc3C(C)C)c3cc(-c4c(OC)ccc5ccccc45)c(Cl)cc23)[C@@H](C)C1 [Compound I-31]	
100 to 1000	C=CC(=O)N1CCN(c2c(C#N)c(=O)n(-c3ccccc3C(C)C)c3cc(-c4cnc(F)cc4C)c(Cl)cc23)[C@@H](C)C1 [Compound I-32]	
> 1000	C=CC(=O)N1CCN(c2c(C#N)c(=O)n(-c3ccccc3C(C)C)c3cc(-c4c(C)noc4C)c(Cl)cc23)[C@@H](C)C1 [Compound I-34]	
< 100	C=CC(=O)N1CCN(c2c(C#N)c(=O)n(-c3ccccc3C(C)C)c3cc(-c4c(N)ccc(Cl)c4F)c(Cl)cc23)[C@@H](C)C1 [Compound I-35]	
100 to 1000	C=CC(=O)N1CCN(c2c(C#N)c(=O)n(-c3ccccc3C(C)C)c3cc(-c4cccc(Cl)c4F)c(Cl)cc23)[C@@H](C)C1 [Compound I-36]	
